In experiment [1] the test system is L. tarentolae lysate. Put plainly: Cell-free transcription-translation inhibition in L. tarentolae lysate. Format: biochemical. The note with it: for IC50: inhibition of translation in active cell lysate, EGFP reporter, 120 min at 26 °C. The procedure: (§1) Cytosolic ribosome susceptibility and selectivity were assessed through three different cell-free transcription-translation assays: (1) An extract of E. coli (S30, Promega, Madison, WI, USA), (2) in rabbit reticulocytes (Promega), and (3) in L. tarentolae lysate (Jena Bioscience, Jena, Germany). Three plasmids, compatible with each extract system, were used in this study: pBESTlucTM (Promega) for the prokaryotic translation assay, Luciferase T7 DNA (Promega) for the reticulocytes, and pLEXSY-invitro2-EGFP (Jena Bioscience) for Leishmania. Firefly luciferase was used as a reporter gene for the bacterial and reticulocyte systems, and EGFP for Leishmania. […] Assays were performed in white polystyrene 96-well flat-bottom plates (Nunc, Roskilde, Denmark) for luciferase and black polystyrene 384-well flat-bottom plates (Greiner, Kremsmunster, Austria) for EGFP. Incubation times were 60 min at 37 °C, 90 min at 30 °C, and 120 min at 26 °C for the bacterial, reticulocyte, and Leishmania systems, respectively. Reactions were stopped by quick snap cooling followed by a 5 min incubation on ice. Luciferase activity was measured for each well following the addition of 50 μL of Luciferase Assay reagent (Promega, Madison, WI, USA) with an automatic reagent injector (Tecan, Mannedorf, Switzerland) by recording the chemical-luminescence signal. EGFP fluorescence (λex = 488 nm; λem = 507 nm) was recorded on a Tecan Infinite R®F200 microplate reader (Tecan). Extracts lacking the circular DNA template were used as a negative control to calculate the fluorescence/chemical luminescence background. Reaction mixtures without compounds were used as positive controls and were regarded as 100% translation. Paromomycin was used as a control reagent in all assays. At least six different concentrations were used to plot each translation inhibition curve; experiments were performed in three independent repeats in duplicate. Half maximal inhibition concentrations (IC50) values were calculated from the concentration-response fitting curves using GraFit7.0.3 software.

In experiment [2] the test system is extract of E. coli (S30). Put plainly: Cell-free transcription-translation inhibition in E. coli S30 extract. The note with it: for IC50: inhibition of translation in active cell lysate, luciferase reporter, 60 min at 37 °C. Format: biochemical. How it is done: as §1
The subject of experiment [3] is rabbit reticulocytes (RR). Put plainly: Cell-free transcription-translation inhibition in rabbit reticulocytes. The class given is biochemical. As to conditions: inhibition of translation in rabbit reticulocyte lysate, luciferase reporter, 90 min at 30 °C. The procedure: as §1
Experiment [4] deals with Leishmania infantum (MHOM/MA/67/ITMAP-263) wild-type strain. Nature of the experiment: Anti-leishmanial activity on promastigotes, L. infantum WT. The class given is cell-based. As to conditions: 72 h, 25 °C, read-out: IC50 (μM) Ldi WT. The procedure: (§2) The L. infantum (MHOM/MA/67/ITMAP-263) wild-type strain (WT), as well as the resistant mutants Sb2000.1, AmB1000.1, and MF200.5 [29, 30, 31, 32, 33], which are respectively resistant to antimony (Sb^III), amphotericin B (AmB), and miltefosine (MF), were grown in M199 medium at 25 °C supplemented with 10% fetal bovine serum, 5 μg/mL of haemin at pH 7.0, 2000 μM Sb (Potassium antimonyl tartrate trihydrate, Sigma-Aldrich, Saint Louis, MO, USA), 200 μM of MF (Miltefosine, Cayman Chem, Ann Arbor, MI, USA) or 1 μM AmB (Amphotericin B solution, Sigma-Aldrich, Saint Louis, MO, USA). Leishmanicidal values were determined in Leishmania promastigotes by monitoring the replication of parasites after 72 h of incubation at 25 °C in the presence of increasing concentrations of the different compounds by measuring A600 using a Cytation 5 machine (BioTek-Agilent, Santa Clara, CA 9, USA). EC50 values were calculated based on dose–response curves analyzed by non-linear regression with GraphPad Prism 10.0 software (GraphPad Software, La Jolla, CA, USA). An average of at least three independent biological replicates were performed for each determination.

Experiment [5] concerns Leishmania major Friedlin. Put plainly: Anti-leishmanial activity on promastigotes, L. major Friedlin. Format: cell-based. As to conditions: 72 h, 25 °C, read-out: IC50 (μM) LmF WT.
The subject of experiment [6] is Leishmania infantum (MHOM/MA/67/ITMAP-263) resistant to 2 mM trivalent (and pentavalent) antimonials. Nature of the experiment: Anti-leishmanial activity on promastigotes, antimony-resistant L. infantum. Format: cell-based. The note with it: 72 h, read-out: IC50 (μM) Ldi Sb-Res. How it is done: as §2
For experiment [7], the system named is Leishmania infantum (MHOM/MA/67/ITMAP-263) resistant to 200 µM miltefosine. Nature of the experiment: Anti-leishmanial activity on promastigotes, miltefosine-resistant L. infantum. Format: cell-based. The note with it: 72 h, read-out: IC50 (μM) Ldi MF-Res. The procedure: as §2
Experiment [8] concerns Leishmania infantum (MHOM/MA/67/ITMAP-263) resistant to 1 µM amphotericin B. Put plainly: Anti-leishmanial activity on promastigotes, amphotericin B-resistant L. infantum. As to conditions: 72 h, read-out: IC50 (μM) Ldi AmB-Res. Format: cell-based. The procedure:
as §2

Structures can show the parent of a compound that is named as a salt. Where two headings read alike, the source gives them in different places. Some results are limits rather than exact numbers.

On to `COc1ccc(C[C@H]2NC[C@H](O)[C@H]2OC(C)=O)cc1` [Analog 1, Anisomycin], for which the results for the IC50 in experiment [1], in experiment [2] and in experiment [3] were 0.55 ± 0.03 µM, more than 500 µM and 0.1 ± 0.02 µM, respectively. Further, in experiment [2] (translation assay), the “effect on E. coli (in words)” value is “no effect”.
`COc1ccc(C[C@H]2NC[C@H](O)[C@H]2O)cc1` [Analog 2, (2R,3S,4S)-3,4-dihydroxy-2-(4-methoxybenzyl)-pyrrolidine]: the concentration for half-maximal inhibition (IC50) in experiment [1] was more than 100 µM; in experiment [2], more than 1000 µM; in experiment [3], more than 1000 µM.
With `COc1ccc(C[C@@H]2[C@H](OC(C)=O)[C@@H](O)CN2C)cc1` [Analog 8, (2R,3S,4S)-1-methyl-4-hydroxy-2-(4-methoxybenzyl)-pyrrolidin-3-yl acetate], the IC50 was more than 100 µM in experiment [1], more than 1000 µM in experiment [2] and 25.5 ± 3.6 µM in experiment [3].
For `COc1ccc(C[C@H]2NC[C@H](OC(C)=O)[C@H]2OC(C)=O)cc1` [Analog 9, (2R,3S,4S)-3,4-diacetoxy-2-(4-methoxybenzyl)-pyrrolidine hydrochloride], in that order: more than 100 µM, more than 1000 µM and 25.7 ± 8.5 µM.
The corresponding values for `COc1ccc(C[C@H]2NC[C@H](OC)[C@H]2OC)cc1` [Analog 10, (2R,3S,4S)-3,4-dimethoxy-2-(4-methoxybenzyl)-pyrrolidine hydrochloride] are more than 1000 µM, more than 1000 µM and more than 1000 µM.
The corresponding values for `COc1ccc(C[C@H]2NC[C@H](O)[C@H]2OC)cc1` [Analog 11, (2R,3S,4S)-3-methoxy-4-hydroxy-2-(4-methoxybenzyl)-pyrrolidine hydrochloride] are 24 ± 2.5 µM, more than 1000 µM and 70.9 ± 8.3 µM.
With `COc1ccc(C[C@H]2NC[C@H](O)[C@H]2OC(C)=O)cc1I` [Analog 16, (2R,3S,4S)-4-hydroxy-2-(3-iodo-4-methoxybenzyl)-pyrrolidin-3-yl acetate], in experiment [1], the “activity against L. tarentolae translation / anti-protozoan activity (in words)” value is on record as “abolished anti-protozoan activity”. Also, the half-inhibitory concentration (IC50) is more than 1000 µM in experiment [1], more than 1000 µM in experiment [2] and 73.7 ± 1.7 µM in experiment [3].
On to `CC(=O)O[C@@H]1[C@@H](O)CN[C@@H]1Cc1ccc(O)cc1` [Analog 17, (2R,3S,4S)-4-hydroxy-2-(4-hydroxybenzyl)-pyrrolidin-3-yl acetate], for which the IC50 in experiment [1] was 53.7 ± 6.1 µM; in experiment [2], more than 200 µM; in experiment [3], 6.2 ± 0.45 µM.
Regarding `CC(=O)O[C@@H]1[C@@H](O)CN[C@@H]1Cc1cc(CN(C)C)c(O)c(CN(C)C)c1` [Analog 19, (2R,3S,4S)-4-hydroxy-2-[3,5-di-(dimethylaminomethyl)-4-hydroxybenzyl]-pyrrolidin-3-yl acetate], the “activity against L. tarentolae translation / anti-protozoan activity (in words)” value in experiment [1] is listed as “abolished anti-protozoan activity”. The IC50 was more than 1000 µM in experiment [1], more than 200 µM in experiment [2] and 70.7 ± 7.3 µM in experiment [3].
For `CC(=O)O[C@@H]1[C@@H](O)CN[C@@H]1Cc1cc(CN2CCOCC2)c(O)c(CN2CCOCC2)c1` [Analog 20, (2R,3S,4S)-4-hydroxy-2-[3,5-di-(morpholinomethyl)-4-hydroxybenzyl]-pyrrolidin-3-yl acetate], in experiment [1], the “activity against L. tarentolae translation / anti-protozoan activity (in words)” value is listed as “abolished anti-protozoan activity”. For the same compound, the 50% inhibitory concentration (IC50) in experiment [1], in experiment [2] and in experiment [3] was more than 1000 µM each time.
As for `CCCCCCCCOc1ccc(C[C@H]2NC[C@H](O)[C@H]2OC(C)=O)cc1` [Analog 22b, (2R,3S,4S)-4-hydroxy-2-(4-octyloxybenzyl)-pyrrolidin-3-yl acetate], the 50% inhibitory concentration (IC50) in experiment [1] was 33.5 ± 8.2 µM; in experiment [2], more than 200 µM; in experiment [3], 9.5 ± 3.5 µM; in experiment [4] (Leishmania infantum), 1.11 ± 0.03 µM; in experiment [5] (Leishmania major), 1.75 ± 0.12 µM; in experiment [6] (Leishmania infantum) it was 1.75 ± 0.08 µM. The IC50 in experiment [7] (Leishmania infantum) amounted to 1.83 ± 0.06 µM; in experiment [8] (Leishmania infantum), 1.78 ± 0.58 µM.
Turning to `CC(=O)O[C@@H]1[C@@H](O)CN[C@@H]1Cc1ccc(OCc2ccccc2)cc1` [Analog 22c, (2R,3S,4S)-4-hydroxy-2-(4-benzyloxybenzyl)-pyrrolidin-3-yl acetate], the figures for the half-maximal inhibitory concentration (IC50) in experiment [1], in experiment [2] and in experiment [3] were 7.96 ± 1.02 µM, more than 200 µM and 0.9 ± 0.2 µM, respectively.
Regarding `CC(=O)O[C@@H]1[C@@H](O)CN[C@@H]1Cc1ccc(OCC(=O)O)cc1` [Analog 22d, (2R,3S,4S)-4-hydroxy-2-(4-carboxymethyloxybenzyl)-pyrrolidin-3-yl acetate], the IC50 is 14.9 ± 2.18 µM in experiment [4] (Leishmania infantum); 16.6 ± 2.23 µM in experiment [5] (Leishmania major); 16 ± 1.03 µM in experiment [6] (Leishmania infantum); 18.2 ± 2.33 µM in experiment [7] (Leishmania infantum); 19.2 ± 1.24 µM in experiment [8] (Leishmania infantum).
For `CCCCCCCCCCCCCCCCOP(=O)([O-])OCC[N+](C)(C)C` [Miltefosine, reference compound], in that order: 7.16 ± 0.21 µM, 8.47 ± 1.18 µM, 8.21 ± 0.53 µM, more than 200 µM and 30.3 ± 4.28 µM.
Turning to `NC[C@@H]1O[C@H](O[C@H]2[C@@H](O)[C@H](O[C@@H]3[C@@H](O)[C@H](N)C[C@H](N)[C@H]3O[C@H]3O[C@H](CO)[C@@H](O)[C@H](O)[C@H]3N)O[C@@H]2CO)[C@H](N)[C@@H](O)[C@@H]1O` [Paromomycin, reference compound], the IC50 was 3.62 ± 0.09 µM in experiment [1], 0.051 ± 0.005 µM in experiment [2] and 21 ± 1.1 µM in experiment [3].
Turning to “Potassium antimonyl tartrate trihydrate [reference compound]”, the IC50 in experiment [4] is 75.8 ± 6.13 µM; in experiment [5], 25 ± 1.13 µM; in experiment [6] (promastigotes, 25 °C), more than 2000 µM; in experiment [7] (promastigotes, 25 °C), 85.3 ± 7.1 µM; in experiment [8] (promastigotes, 25 °C), 90.2 ± 8.3 µM.

These data come from publication PMC10526209, “Systematic Exploration of Functional Group Relevance for Anti-Leishmanial Activity of Anisomycin” (Biomedicines, 2023).
